US20100267561A1, “HERBICIDAL PYRIDAZINONE DERIVATIVES” (priority 2007, published 2010)

Assays:
Assay in all cases: Test B pre-/postemergence plant response
Format in all cases: in vivo
[1] = system: common (oilseed) sunflower (Helianthus annuus); settings: Preemergence
In short: (§1)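 Visual scoring from 0 (no effect) to 100 (complete control) against untreated controls was done 13 to 15 days after greenhouse treatment. Chemicals were formulated in a surfactant-containing non-phytotoxic solvent and applied to soil preemergence or to 1- to 4-leaf (2-18 cm) plants postemergence.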

[2] = system: wheat (Triticum aestivum)
In short: as §1

corn (Zea mays) = system: corn (Zea mays)
In short: as §1

[3] = system: blackgrass (Alopecurus myosuroides)
In short: as §1

[4] = system: morningglory (Ipomoea coccinea)
In short: as §1

[5] = system: large crabgrass (Digitaria sanguinalis)
In short: as §1

[6] = system: downy bromegrass (Bromus tectorum)
In short: as §1

[7] = system: lambsquarters (Chenopodium album); settings: Postemergence
In short: as §1

[8] = system: bermudagrass (Cynodon dactylon)
In short: as §1

[9] = system: velvetleaf (Abutilon theophrasti)
In short: as §1

[10] = system: green foxtail (Setaria viridis)
In short: as §1

[11] = system: giant foxtail (Setaria faberii)
In short: as §1

[12] = system: catchweed bedstraw (Galium aparine); settings: Preemergence, scale 0 to 100
In short: as §1

wild oat (Avena fatua) = system: wild oat (Avena fatua)
In short: as §1

[13] = Postemergence, 31 g ai/ha, scale 0 to 100, 0 no effect, 100 complete control
[14] = Postemergence, 62 g ai/ha, scale 0 to 100
[15] = Postemergence, 125 g ai/ha, scale 0 to 100
[16] = Postemergence, 250 g ai/ha, scale 0 to 100
[17] = Preemergence, 31 g ai/ha, 0 to 100 scale, 0 no effect, 100 complete control
[18] = Preemergence, 62 g ai/ha, scale 0 to 100
[19] = Preemergence, 125 g ai/ha, scale 0 to 100
[20] = Preemergence, 250 g ai/ha, scale 0 to 100
[21] = 250 g ai/ha, preemergence, 0-100 scale

4-[3-(4-chlorophenyl)-5-methyl-1H-pyrazol-3-yl]-5-hydroxy-2-methyl-3(2H)-pyridazinone [Compound 3]
Plant response rating, Sunflower ([1]; 31 g ai/ha, 0 to 100 scale, 0 no effect, 100 complete control): 30
Plant response rating, Sunflower ([1]; 62 g ai/ha, scale 0 to 100): 40
Plant response rating, Wheat [2, 13]: 80
Plant response rating, Wheat [2, 14]: 90
Plant response rating, Wheat [2, 15]: 100
Plant response rating, Wheat [2, 16]: 100
Plant response rating, Wheat [2, 17]: 45
Plant response rating, Wheat [2, 18]: 75
Plant response rating, Wheat [2, 19]: 95
Plant response rating, Wheat [2, 20]: 98
Plant response rating, Corn (corn (Zea mays); [13]): 100
Plant response rating, Corn (corn (Zea mays); [14]): 100
Plant response rating, Corn (corn (Zea mays); [15]): 100
Plant response rating, Corn (corn (Zea mays); [16]): 100
Plant response rating, Corn (corn (Zea mays); [17]): 95
Plant response rating, Corn (corn (Zea mays); [18]): 95
Plant response rating, Corn (corn (Zea mays); [19]): 95
Plant response rating, Corn (corn (Zea mays); [20]): 98
Blackgrass plant response rating [3, 21]: 100
Plant response rating, Blackgrass [3, 13]: 100
Plant response rating, Blackgrass [3, 14]: 100
Plant response rating, Blackgrass [3, 15]: 100
Plant response rating, Blackgrass [3, 16]: 100
Plant response rating, Blackgrass [3, 17]: 80
Plant response rating, Blackgrass [3, 18]: 100
Plant response rating, Blackgrass [3, 19]: 100
Plant response rating, Morningglory [4, 13]: 0
Plant response rating, Morningglory [4, 14]: 0
Plant response rating, Morningglory [4, 15]: 0
Plant response rating, Morningglory [4, 16]: 0
Plant response rating, Morningglory [4, 17]: 0
Plant response rating, Morningglory [4, 18]: 0
Plant response rating, Morningglory [4, 19]: 0
Plant response rating, Morningglory [4, 20]: 0
Plant response rating, Crabgrass, Large [5, 13]: 100
Plant response rating, Crabgrass, Large [5, 14]: 100
Plant response rating, Crabgrass, Large [5, 15]: 100
Plant response rating, Crabgrass, Large [5, 16]: 100
Plant response rating, Crabgrass, Large [5, 17]: 90
Plant response rating, Crabgrass, Large [5, 18]: 90
Plant response rating, Crabgrass, Large [5, 19]: 100
Plant response rating, Crabgrass, Large [5, 20]: 100
Plant response rating, Bromegrass, Downy [6, 13]: 5
Plant response rating, Bromegrass, Downy [6, 14]: 5
Plant response rating, Bromegrass, Downy [6, 15]: 5
Plant response rating, Bromegrass, Downy [6, 16]: 5
Plant response rating, Bromegrass, Downy [6, 17]: 50
Plant response rating, Bromegrass, Downy [6, 18]: 60
Plant response rating, Bromegrass, Downy [6, 19]: 95
Plant response rating, Bromegrass, Downy ([6]; Preemergence, 250 g ai/ha, scale 0 to 100 (0 no effect, 100 complete control)): 98
Plant response rating, Lambsquarters ([7]; 31 g ai/ha, scale 0 to 100, 0 no effect, 100 complete control): 0
Plant response rating, Lambsquarters ([7]; 62 g ai/ha, scale 0 to 100): 0
Plant response rating, Lambsquarters ([7]; 125 g ai/ha, scale 0 to 100): 15
Plant response rating, Lambsquarters ([7]; 250 g ai/ha, scale 0 to 100): 20
Bermudagrass plant response rating [8, 21]: 100
Plant response rating, Bermudagrass [8, 13]: 100
Plant response rating, Bermudagrass [8, 14]: 100
Plant response rating, Bermudagrass [8, 15]: 100
Plant response rating, Bermudagrass [8, 16]: 100
Plant response rating, Bermudagrass [8, 17]: 30
Plant response rating, Bermudagrass [8, 18]: 100
Plant response rating, Bermudagrass [8, 19]: 100
Plant response rating, Velvetleaf [9, 13]: 0
Plant response rating, Velvetleaf [9, 14]: 0
Plant response rating, Velvetleaf [9, 15]: 0
Plant response rating, Velvetleaf [9, 16]: 0
Plant response rating, Velvetleaf [9, 17]: 0
Plant response rating, Velvetleaf [9, 18]: 0
Plant response rating, Velvetleaf [9, 19]: 0
Plant response rating, Velvetleaf [9, 20]: 20
Plant response rating, Foxtail, Green [10, 13]: 90
Plant response rating, Foxtail, Green [10, 14]: 100
Plant response rating, Foxtail, Green [10, 15]: 100
Plant response rating, Foxtail, Green [10, 16]: 100
Plant response rating, Foxtail, Green [10, 17]: 100
Plant response rating, Foxtail, Green [10, 18]: 100
Plant response rating, Foxtail, Green [10, 19]: 100
Plant response rating, Foxtail, Green [10, 20]: 100
Plant response rating, Foxtail, Giant [11, 13]: 100
Plant response rating, Foxtail, Giant [11, 14]: 100
Plant response rating, Foxtail, Giant [11, 15]: 100
Plant response rating, Foxtail, Giant [11, 16]: 100
Plant response rating, Foxtail, Giant [11, 17]: 98
Plant response rating, Foxtail, Giant [11, 18]: 98
Plant response rating, Foxtail, Giant [11, 19]: 100
Plant response rating, Foxtail, Giant [11, 20]: 100
Plant response rating, Galium ([12]; 62 g ai/ha): 85
Plant response rating, Galium ([12]; 125 g ai/ha): 85
Plant response rating, Galium ([12]; 250 g ai/ha): 85
Plant response rating, Oat, Wild (wild oat (Avena fatua); [13]): 90
Plant response rating, Oat, Wild (wild oat (Avena fatua); [14]): 95
Plant response rating, Oat, Wild (wild oat (Avena fatua); [15]): 100
Plant response rating, Oat, Wild (wild oat (Avena fatua); [16]): 100
Plant response rating, Oat, Wild (wild oat (Avena fatua); [17]): 60
Plant response rating, Oat, Wild (wild oat (Avena fatua); [18]): 70
Plant response rating, Oat, Wild (wild oat (Avena fatua); [19]): 80
Plant response rating, Oat, Wild (wild oat (Avena fatua); [20]): 95
